Measured values taken from patent US20240293558A1, “KRAS INHIBITOR CONJUGATES” (Erasca, Inc., priority 2021, published 2024).
Read-outs that look alike come from different tables or passages of the source.

Key:
KRAS (WT) = target: T1, KRAS (WT) (Homo sapiens, UniProt P01116); assay: In-vitro RAS-RAF binding assay (RRB), HTRF/FRET; assay type: biochemical; details: read-out: Inhibition of RAS-RAF Binding (in-vitro) KRAS (WT) IC50
T1 construct: Biotinylated KRAS protein amino acids 1-169 (produced at Erasca); made in house
T1 sequence (P01116 1-169 isoform P01116-2): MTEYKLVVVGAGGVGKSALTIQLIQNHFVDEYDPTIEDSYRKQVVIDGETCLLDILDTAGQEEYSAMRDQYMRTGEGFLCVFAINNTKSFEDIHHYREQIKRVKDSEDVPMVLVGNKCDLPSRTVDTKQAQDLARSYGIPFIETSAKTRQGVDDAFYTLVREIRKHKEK
Protocol: (§1) Biotinylated KRAS protein amino acids 1-169 (produced at […]) is labeled with streptavidin-terbium (lanthanide cryptate donor fluorophore) in assay buffer (50 mM HEPES, pH 7.5, 100 mM NaCl, 1 mM MgCl2, 1 mM DTT) at a final concentration of 30 nM. In a separate reaction mixture, 30 nM cRAF (RBD) (Abcam, Cambridge MA) is labeled with anti-GST d2 (acceptor fluorophore). Labeling reactions are incubated for 1 hour at room temperature. […] Following the compound incubation, SOS1 catalytic domain (produced at […]) and GTPgS are added to the reaction to initiate nucleotide exchange (60 minutes exchange reaction). Once in the GTP state KRAS will bind to cRAF. No binding will occur if KRAS remains in the GDP state. Compounds may block nucleotide exchange or may create a steric obstruction to cRAF-KRAS interaction by binding to the RAS effector site. […] A portion of this mixture is transferred to a white 384-well plate (20 uL per well in duplicate) and read on an HTRF compatible plate reader (ClarioSTAR). Fluorescent resonance energy transfer (FRET) is measured at equilibrium. FRET signal will be high if KRAS-cRAF binding occurs. FRET signal will be low if KRAS-cRAF binding is inhibited by the test compound. Table 2 represents the average of multiple runs of each compound.

KRAS G12D = KRAS G12D (Homo sapiens, UniProt P01116, G12D); assay: In-vitro RAS-RAF binding assay (RRB), HTRF/FRET; assay type: biochemical; design: Biotinylated KRAS protein amino acids 1-169 (produced at Erasca); made in house; details: read-out: Inhibition of RAS-RAF Binding (in-vitro) KRAS (G12D) IC50
Sequence of KRAS G12D (P01116 1-169 isoform P01116-2 G12D): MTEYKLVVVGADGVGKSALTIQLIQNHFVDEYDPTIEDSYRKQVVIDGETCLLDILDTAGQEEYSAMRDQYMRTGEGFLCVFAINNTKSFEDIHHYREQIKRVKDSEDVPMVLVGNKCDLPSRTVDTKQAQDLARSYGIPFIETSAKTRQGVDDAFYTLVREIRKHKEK
Protocol: as §1

[1] = Table 2, average of multiple runs of each compound

C#Cc1c(F)ccc2cc(O)cc(-c3ncc4c(N5CC6CCC(C5)N6)nc(OC[C@@H]5CCCN5CCCOCCC(=O)N[C@H](C(=O)N5C[C@H](O)C[C@H]5C(=O)N[C@@H](C)c5ccc(-c6c(F)cccc6F)cn5)C(C)(C)C)nc4c3F)c12 [Example 30, (2S,4R)-1-((2S)-2-(3-(3-((2S)-2-(((4-(3,8-diazabicyclo[3.2.1]octan-3-yl)-7-(8-ethynyl-7-fluoro-3-hydroxynaphthalen-1-yl)-8-fluoropyrido[4,3-d]pyrimidin-2-yl)oxy)methyl)pyrrolidin-1-yl)propoxy)propanamido)-3,3-dimethylbutanoyl)-N—((S)-1-(5-(2,6-difluorophenyl)pyridin-2-yl)ethyl)-4-hydroxypyrrolidine-2-carboxamide]
IC50 (KRAS (WT); [1]): 0.0223 µM | IC50 (KRAS G12D; [1]): 0.00759 µM

Cc1cc(N)nc(-c2c(Cl)cc3c(N4CC5CCC(C4)N5)nc(OC[C@@H]4CCCN4CCCOCCC(=O)N[C@H](C(=O)N4C[C@H](O)C[C@H]4C(=O)NCc4ccc(-c5scnc5C)cc4)C(C)(C)C)nc3c2F)c1C(F)(F)F [Example 2, (2S,4R)-1-[(2S)-2-[3-[3-[(2S)-2-[[7-[6-amino-4-methyl-3-(trifluoromethyl)-2-pyridyl]-6-chloro-4-(3,8-diazabicyclo[3.2.1]octan-3-yl)-8-fluoro-quinazolin-2-yl]oxymethyl]pyrrolidin-1-yl]propoxy]propanoylamino]-3,3-dimethyl-butanoyl]-4-hydroxy-N-[[4-(4-methylthiazol-5-yl)phenyl]methyl]pyrrolidine-2-carboxamide]
IC50 (KRAS (WT); Table 1): 4.25 µM | IC50 (KRAS (WT); [1]): 4.25 µM | IC50 (KRAS G12D; Table 1): 0.017 µM | IC50 (KRAS G12D; [1]): 0.0172 µM

CC(C)[C@@H](C(=O)N1C[C@H](O)C[C@H]1C(=O)N[C@@H](C)c1ccc(-c2c(F)cccc2F)cc1)c1cc(OCC2(C)CCN(CCOc3nc(N4CC5CCC(C4)N5)c4cc(Cl)c(-c5ccc(F)c6sc(N)c(C#N)c56)c(F)c4n3)CC2)no1 [Example 66, (2S,4R)-1-((2R)-2-(3-((1-(2-((7-(2-amino-3-cyano-7-fluorobenzo[b]thiophen-4-yl)-4-(3,8-diazabicyclo[3.2.1]octan-3-yl)-6-chloro-8-fluoroquinazolin-2-yl)oxy)ethyl)-4-methylpiperidin-4-yl)methoxy)isoxazol-5-yl)-3-methylbutanoyl)-N-((S)-1-(2′,6′-difluoro-[1,1′-biphenyl]-4-yl)ethyl)-4-hydroxypyrrolidine-2-carboxamide]
IC50 (KRAS (WT); [1]): ≥ 10 µM | IC50 (KRAS G12D; [1]): 0.0198 µM

C#Cc1c(F)ccc2cc(O)cc(-c3ncc4c(N5CC6CCC(C5)N6)nc(OC[C@@H]5CCCN5CCCOCCC(=O)N[C@H](C(=O)N5C[C@H](O)C[C@H]5C(=O)N[C@@H](C)c5ccc(-c6c(Cl)cccc6Cl)cc5)C(C)(C)C)nc4c3F)c12 [Example 45]
IC50 (KRAS (WT); [1]): 0.0449 µM | IC50 (KRAS G12D; [1]): 0.00897 µM

C#Cc1c(F)ccc2cc(O)cc(-c3ncc4c(N5CC6CCC(C5)N6)nc(OC[C@@H]5CCCN5CCCOCCC(=O)N[C@H](C(=O)N5C[C@H](O)C[C@H]5C(=O)N[C@@H](C)c5ccc(-c6c(F)cccc6C(F)(F)F)cc5)C(C)(C)C)nc4c3F)c12 [Example 43, (2S,4R)-1-((2S)-2-(3-(3-((2S)-2-(((4-(3,8-diazabicyclo[3.2.1]octan-3-yl)-7-(8-ethynyl-7-fluoro-3-hydroxynaphthalen-1-yl)-8-fluoropyrido[4,3-d]pyrimidin-2-yl)oxy)methyl)pyrrolidin-1-yl)propoxy)propanamido)-3,3-dimethylbutanoyl)-N-((S)-1-(2′-fluoro-6′-(trifluoromethyl)-[1,1′-biphenyl]-4-yl)ethyl)-4-hydroxypyrrolidine-2-carboxamide]
IC50 (KRAS (WT); [1]): 0.0383 µM | IC50 (KRAS G12D; [1]): 0.00768 µM

C#Cc1c(F)ccc2cc(O)cc(-c3ncc4c(N5CC6CCC(C5)N6)nc(OC[C@@H]5CCCN5CCCOCCC(=O)N[C@H](C(=O)N5C[C@H](O)C[C@H]5C(=O)N[C@@H](C)c5ccc(-c6c(F)cccc6Cl)cc5)C(C)(C)C)nc4c3F)c12 [Example 42, (2S,4R)-1-((2S)-2-(3-(3-((2S)-2-(((4-(3,8-diazabicyclo[3.2.1]octan-3-yl)-7-(8-ethynyl-7-fluoro-3-hydroxynaphthalen-1-yl)-8-fluoropyrido[4,3-d]pyrimidin-2-yl)oxy)methyl)pyrrolidin-1-yl)propoxy)propanamido)-3,3-dimethylbutanoyl)-N-((S)-1-(2′-chloro-6′-fluoro-[1,1′-biphenyl]-4-yl)ethyl)-4-hydroxypyrrolidine-2-carboxamide]
IC50 (KRAS (WT); [1]): 0.0249 µM | IC50 (KRAS G12D; [1]): 0.00778 µM

Cc1ncsc1-c1ccc([C@H](C)NC(=O)[C@@H]2C[C@@H](O)CN2C(=O)[C@@H](NC(=O)CCCCN2CCC[C@H]2COc2nc(N3CC4CCC(C3)N4)c3cc(Cl)c(-c4ccc(F)c5sc(N)c(C#N)c45)c(F)c3n2)C(C)(C)C)cc1 [Example 89, (2S,4R)-1-((2S)-2-(5-((2S)-2-(((7-(2-amino-3-cyano-7-fluorobenzo[b]thiophen-4-yl)-4-(3,8-diazabicyclo[3.2.1]octan-3-yl)-6-chloro-8-fluoroquinazolin-2-yl)oxy)methyl)pyrrolidin-1-yl)pentanamido)-3,3-dimethylbutanoyl)-4-hydroxy-N-((S)-1-(4-(4-methylthiazol-5-yl)phenyl)ethyl)pyrrolidine-2-carboxamide]
IC50 (KRAS (WT); [1]): 0.0658 µM | IC50 (KRAS G12D; [1]): 0.0152 µM

C#Cc1c(F)ccc2cc(O)cc(-c3ncc4c(N5CC6CCC(C5)N6)nc(OC[C@@H]5CCCN5CCCOCCC(=O)N[C@H](C(=O)N5C[C@H](O)C[C@H]5C(=O)N[C@@H](C)c5ccc(-c6c(F)c(F)cc(F)c6F)cc5)C(C)(C)C)nc4c3F)c12 [Example 54, (2S,4R)-1-((2S)-2-(3-(3-((2S)-2-(((4-(3,8-diazabicyclo[3.2.1]octan-3-yl)-7-(8-ethynyl-7-fluoro-3-hydroxynaphthalen-1-yl)-8-fluoropyrido[4,3-d]pyrimidin-2-yl)oxy)methyl)pyrrolidin-1-yl)propoxy)propanamido)-3,3-dimethylbutanoyl)-4-hydroxy-N-((S)-1-(2′,3′,5′,6′-tetrafluoro-[1,1′-biphenyl]-4-yl)ethyl)pyrrolidine-2-carboxamide]
IC50 (KRAS (WT); [1]): 0.0529 µM | IC50 (KRAS G12D; [1]): 0.00965 µM

C[C@H](NC(=O)[C@@H]1C[C@@H](O)CN1C(=O)[C@@H](NC(=O)CCOCCCN1CCC[C@H]1COc1nc(N2CC3CCC(C2)N3)c2cc(C(F)(F)F)c(-c3ccc(F)c4sc(N)c(C#N)c34)c(F)c2n1)C(C)(C)C)c1ccc(-c2c(F)cccc2F)cc1 [Example 79, (2S,4R)-1-((2S)-2-(3-(3-((2S)-2-((((7R)-7-(2-amino-3-cyano-7-fluorobenzo[b]thiophen-4-yl)-4-(3,8-diazabicyclo[3.2.1]octan-3-yl)-8-fluoro-6-(trifluoromethyl)quinazolin-2-yl)oxy)methyl)pyrrolidin-1-yl)propoxy)propanamido)-3,3-dimethylbutanoyl)-N-((S)-1-(2′,6′-difluoro-[1,1′-biphenyl]-4-yl)ethyl)-4-hydroxypyrrolidine-2-carboxamide]
IC50 (KRAS (WT); [1]): > 10 µM | IC50 (KRAS G12D; [1]): > 10 µM

C[C@H](NC(=O)[C@@H]1C[C@@H](O)CN1C(=O)[C@@H](NC(=O)CCOCCCN1CCC[C@H]1COc1nc(N2CC3CCC(C2)N3)c2cc(Cl)c(-c3ccc(F)c4sc(N)c(C#N)c34)c(F)c2n1)C(C)(C)C)c1ccc(-c2c(F)cc(F)cc2F)cc1 [Example 37, (2S,4R)-1-((2S)-2-(3-(3-((2S)-2-(((7-(2-amino-3-cyano-7-fluorobenzo[b]thiophen-4-yl)-4-(3,8-diazabicyclo[3.2.1]octan-3-yl)-6-chloro-8-fluoroquinazolin-2-yl)oxy)methyl)pyrrolidin-1-yl)propoxy)propanamido)-3,3-dimethylbutanoyl)-4-hydroxy-N—((S)-1-(2′,4′,6′-trifluoro-[1,1′-biphenyl]-4-yl)ethyl)pyrrolidine-2-carboxamide]
IC50 (KRAS (WT); [1]): 0.275 µM | IC50 (KRAS G12D; [1]): 0.0194 µM

C#Cc1c(F)ccc2cc(O)cc(-c3ncc4c(N5CC6CCC(C5)N6)nc(OC[C@@H]5CCCN5CCCOCCC(=O)N[C@H](C(=O)N5C[C@H](O)C[C@H]5C(=O)N[C@@H](C)c5ccc(-c6c(C)cccc6C)cc5)C(C)(C)C)nc4c3F)c12 [Example 41, (2S,4R)-1-((2S)-2-(3-(3-((2S)-2-(((4-(3,8-diazabicyclo[3.2.1]octan-3-yl)-7-(8-ethynyl-7-fluoro-3-hydroxynaphthalen-1-yl)-8-fluoropyrido[4,3-d]pyrimidin-2-yl)oxy)methyl)pyrrolidin-1-yl)propoxy)propanamido)-3,3-dimethylbutanoyl)-N-((S)-1-(2′,6′-dimethyl-[1,1′-biphenyl]-4-yl)ethyl)-4-hydroxypyrrolidine-2-carboxamide]
IC50 (KRAS (WT); [1]): 0.0534 µM | IC50 (KRAS G12D; [1]): 0.0094 µM
